Several values for one entry are separate records, joined by “and”; a condition that tells them apart may be missing. Identical values can stand only once. Like-named read-outs stand apart in the source and are kept apart here.
Legend:
[1] = tested on: human rectal cancer Colo 320
melanoma B16F10 = assay: transplanted melanoma B16F10 in C57BL/6 black mice
Procedure: Hypodermically injecting polypeptides and other drugs into the left axillary region of mice from the experimental groups respectively while administering only equal quantity of physiological saline to the mice from the negative control group. The total medication period was 14 days, during which cyclophosphamide was administered once every other day, taxol once every three days, low-dose polypeptide twice a day and all other drugs once a day.

[2] = tested on: human liver cancer SMMC-7721
[3] = tested on: human umbilical vein endothelial cells (HUVECs); assay: inhibition of capillary formation of HUVECs (matrigel); assay type: cell-based; conditions: 10 μg/ml; for inhibition at 10 µg/mL: Homo sapiens, HUVEC, read-out: inhibition rate (%) of capillary formation
Procedure: Thawing 10 mg/mL matrigel (BD Company, USA) stocked at −20° C. overnight at 4° C., diluting it with HUVEC culture medium at the ratio of 1:1; smearing 30 μl of the solution on a 96-well plate (Greiner Company, USA), placing the plate at a 37 incubator for 1 h of aggregation. Digesting the HUVECs with 0.2% ethylene diamine tetraacetic acid (EDTA) when they reached the logarithmic phase; collecting the cells and washing them with PBS buffer twice, and then resuspending the cells with blank HUVEC culture medium. Counting the cells under a microscope, adjusting the cell concentration to 1×10^5 cells/ml. Preparing the testing solution for all groups, and diluting with blank HUVEC culture medium to 100 μl. Seeding the cells into the 96-well plate, 100 μl for each well, adding also the testing solution into each well and incubating the cells in 5% CO2 at 37° C. After 6 h, 12 h, 24 h, 36 h, 48 h, 60 h of incubation, randomly choosing 5 FOVs for each dose, photographing and counting the cells; calculating the number of capillary structures at different doses and analyzing the inhibition effect of polypeptide II and polypeptide III on HUVECs' differentiating into capillaries. The inhibition rate of capillary formation was calculated in accordance with the following formula: […]
wherein Ntest is the number of capillary structures in the test groups while Ncontrol is the number of capillary structures in the negative control group.

[4] = tested on: human endometrial cancer HHUA
[5] = positive control, tail vein once every 3 days
[6] = taxol 10 mg/kg/time, once every 3 days, tail vein injection
[7] = 10 mg/kg/time, tail vein once every 3 days

## CC(=O)O[C@H]1C(=O)[C@@]2(C)[C@H]([C@H](OC(=O)c3ccccc3)[C@]3(O)C[C@H](OC(=O)[C@H](O)[C@@H](NC(=O)c4ccccc4)c4ccccc4)C(C)=C1C3(C)C)[C@]1(OC(C)=O)CO[C@@H]1C[C@@H]2O [taxol, reference compound]
Human brain tumor SF763; mouse, in vivo
  body weight of animals, in words: greatly reduced the body weight
  toxic and side effects, in words: more apparent toxic and side effects
Human brain tumor SF763; [5]
  inhibition rate on tumor: 76.29%
Human brain tumor SF763; [6]
  tumor inhibition rate: 76.29%
  tumor weight: 0.28 ± 0.07 g
[1]; mouse, in vivo
  body weight of animals, in words: greatly reduced the body weight
  toxic and side effects, in words: more apparent toxic and side effects
[1]; [5]
  inhibition rate on tumor: 76.62%
[1]; [6]
  tumor inhibition rate: 76.62%
  tumor weight: 0.29 ± 0.07 g
Melanoma B16F10; 10 mg/kg/time once every three days, hypodermic, 14 days
  tumor weight: 0.77 ± 0.62 g and 0.98 ± 0.30 g
Melanoma B16F10; mouse, in vivo
  body weight of animals, in words: greatly reduced the body weight
  toxic and side effects, in words: severer toxic and side effects
[2]; [7]
  tumor inhibition rate: 78.10%
  tumor weight: 0.28 ± 0.05 g
[2]; mouse, in vivo
  body weight of animals, in words: greatly reduced the body weight
  toxic and side effects, in words: more apparent toxic and side effects
[3]; 6 h
  number of capillary structures (mean ± SD): 0.0 ± 0.0
  inhibition at 10 µg/mL: 100%
[3]; 12 h
  number of capillary structures (mean ± SD): 0.0 ± 0.0
  inhibition at 10 µg/mL: 100%
Human lung cancer H460; [7]
  tumor inhibition rate: 68.21%
  tumor weight: 0.28 ± 0.07 g
Human lung cancer H460; mouse, in vivo
  body weight of animals, in words: greatly reduced the body weight
  toxic and side effects, in words: more apparent toxic and side effects
[4]; [7]
  tumor weight: 0.23 ± 0.07 g
[4]; mouse, in vivo
  body weight of animals, in words: greatly reduced the body weight
  toxic and side effects, in words: more apparent toxic and side effects

Reference: patent publication US9458203B2, “Integrin-blocking polypeptides and uses thereof” (priority 2011, dated 2016)
